Patent US20070219275A1, “Use of Benzophenone Uv Filters for Preventing Tanning” (priority 2004, published 2007)

System: skin pigmentation on the back of Asian volunteers
Test: Tanning prevention: skin color (L*a*b*, Minolta chromameter) on the back of volunteers irradiated with simulated solar light
Type: in vivo, human
Details: day cream with 5% compound
Protocol: Skin color was measured in the L*a*b* colour by means of a Minolta CM-508i®) Chromameter).
10 Volunteers of originating from S-E-Asia and with a skinlightness L* between 65.4 and 40.8 were recruited following COLIPA-Guidelines.
The influence of extensive sun exposure on skin pigmentation and the protective effects of day care cosmetics were directly measured on the back of volunteers:
40 and 20 minutes prior to irradiation volunteers treated on the back with 2 mg/cm^2 of cream formulation.
Then tey were irradiated with simulated solar light for 12 weeks, 3-times a week with a dose≦1 MED (Minimal erythema dose; MED adjusted monthly).
The skin of the volunteers was assessed prior to the test and monthly prior to cream application and irradiation.
The influence of extensive sun exposure on skin pigmentation and the protective effects of a day cream containing
was directly measured on the back of Asian volunteers.
The skin of the volunteers was assessed prior to the test and monthly prior to cream application and irradiation for skin color by a Minolta Colorimeter 508i.

[1] = After 4 weeks, irradiation 3x/week <1 MED
[2] = After 8 weeks, irradiation 3x/week <1 MED
[3] = After 12 weeks, irradiation 3x/week <1 MED
[4] = Start, 2 mg/cm^2, 10 Asian volunteers

With `CCCCCCOC(=O)c1ccccc1C(=O)c1ccc(N(CC)CC)cc1O` [compound of formula (3)] the “L* (skin color)” value [1] was 50.5, the “a* (skin color)” value [1] was 23.1 and the “b* (skin color)” value [1] was 22.6. For the same compound, the “L* (skin color)” value [2] was 48.8, the “a* (skin color)” value [2] was 22.6 and the “b* (skin color)” value [2] was 23.3. The “L* (skin color)” value [3] was 47.7, the “a* (skin color)” value [3] was 21.5 and the “b* (skin color)” value [3] was 24.6. For the same compound, the “L* (skin color)” value [4] was 53.3, the “a* (skin color)” value [4] was 22.5 and the “b* (skin color)” value [4] was 22.5.
